# Measured values from PMC10786919, “Design-rules for stapled peptides with in vivo activity and their application to Mdm2/X antagonists” (Nature Communications, 2024).
# Like-named read-outs stand apart in the source and are kept apart here. Positions of bridges follow the written chain, without caps; N, C: chain ends. Non-standard residues stand in square brackets, D forms with d. Residues, ends and D or L forms follow the SMILES beside them. Trp(6-Cl) = N[C@@H](Cc1c[nH]c2cc(Cl)ccc12)C(=O)O; Lys(N3) = [N-]=[N+]=NCCCC[C@H](N)C(=O)O; R8 = C=CCCCCCC[C@@](C)(N)C(=O)O; Cba = N[C@@H](CC1CCC1)C(=O)O; S5 = C=CCCC[C@](C)(N)C(=O)O; βAla = NCCC(=O)O; Sar = CNCC(=O)O
# Key:
# [1] = Lactate dehydrogenase (LDH) release assay; type: cell-based
# Method in brief: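 A p53 β-lactamase reporter HCT116 line, 8000 cells per well, is exposed to test compounds at 0.5% final DMSO and scored for LDH leakage.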
# [2] = Solubility assay (kinetic solubility, PBS pH 7); type: physicochemical; details: pH 7, PBS; for solubility kinetic: pH 7, aqueous buffer, kinetic from dmso stock, read-out: Solubility
# Method in brief: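 Quantitation uses an external standard at 100 µM, prepared from 10 mM stock in acetonitrile:methanol:DMSO (10:80:10). Solubility (µM) = (peak area of sample ÷ peak area of standard) × standard concentration.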
# in vitro = experiment: in vitro
# Method in brief: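 Azido-peptide permeability was read as loss of NanoBRET signal (donor 450 nm, acceptor 610 nm) after adding NanoBret618-azide at 10 μM final.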
# [3] = Experimental LogD (partition coefficient); details: for logD: not stated, Partition Coeff LogD
# [4] = Nanoclick permeability assay EC50
Compound,EC50 ([1]; LDH: Cytotoxicity assay: EC50) [nM],Solubility [2],cell entry EC50 (in vitro; [4]) [nM],EPSA (physchem) [A^2],Partition Coeff LogD [3],solubility kinetic [2] [µM],logD [3],"EC50 ([1]; 0% FBS 4Hr, read-out: LDH: Cytotoxicity assay: EC50) [nM]","EC50 ([1]; 4 hours, 0% serum, read-out: LDH Cytotoxicity assay EC50) [nM]",cell entry EC50 (in vitro) [nM]
CC(=O)N[C@@H](CCCCN=[N+]=[N-])C(=O)NCCC(=O)N[C@@H](CC(C)C)C(=O)N[C@H](C(=O)N[C@@H](Cc1ccccc1)C(=O)N[C@]1(C)CCCCCCC=CCCC[C@@](C)(C(=O)N[C@@H](CO)C(=O)N[C@@H](C)C(=O)N[C@@H](C)C(N)=O)NC(=O)[C@H](CC2CCC2)NC(=O)[C@H](CCC(N)=O)NC(=O)[C@H](C)NC(=O)[C@H](Cc2c[nH]c3ccccc23)NC(=O)[C@H](CCC(=O)O)NC(=O)[C@H](C)NC1=O)[C@@H](C)O [MP-029] (Ac-[Lys(N3)][βAla]LTF[R8]AEWAQ[Cba][S5]SAA-NH2; staple 6-13),> 50700,Poorly Behaved,70,182,Poorly Behaved,,,,,
CC(=O)N[C@@H](CCCCN=[N+]=[N-])C(=O)NCCC(=O)N[C@@H](CC(C)C)C(=O)N[C@H](C(=O)N[C@@H](Cc1ccccc1)C(=O)N[C@]1(C)CCCCCCC=CCCC[C@@](C)(C(=O)N[C@@H](CO)C(=O)N[C@@H](C)C(=O)N[C@@H](C)C(N)=O)NC(=O)[C@H](CC2CCC2)NC(=O)[C@H](CCC(N)=O)NC(=O)[C@H](C)NC(=O)[C@H](Cc2c[nH]c3ccccc23)NC(=O)[C@H](Cc2ccc(O)cc2)NC(=O)CNC1=O)[C@@H](C)O [MP-210] (Ac-[Lys(N3)][βAla]LTF[R8]GYWAQ[Cba][S5]SAA-NH2; staple 6-13),> 50600,,279,198,,2,3.35,,,
CC(=O)N[C@@H](CCCCN=[N+]=[N-])C(=O)NCCC(=O)N[C@@H](CC(C)C)C(=O)N[C@H](C(=O)N[C@@H](Cc1ccccc1)C(=O)N[C@]1(C)CCCCCCC=CCCC[C@@](C)(C(=O)N[C@@H](CO)C(=O)N[C@@H](C)C(=O)N[C@@H](C)C(N)=O)NC(=O)[C@H](CC2CCC2)NC(=O)[C@@H]2CCCN2C(=O)[C@H](C)NC(=O)[C@H](Cc2c[nH]c3ccccc23)NC(=O)[C@H](Cc2ccc(O)cc2)NC(=O)[C@H](CCC(=O)O)NC1=O)[C@@H](C)O [MP-260] (Ac-[Lys(N3)][βAla]LTF[R8]EYWAP[Cba][S5]SAA-NH2; staple 6-13),> 50600,Poorly Behaved,246,197,Poorly Behaved,,,,,
CC(=O)N[C@@H](CCCCN=[N+]=[N-])C(=O)NCCC(=O)N[C@@H](CC(C)C)C(=O)N[C@H](C(=O)N[C@@H](Cc1ccccc1)C(=O)N[C@]1(C)CCCCCCC=CCCC[C@@](C)(C(=O)N[C@@H](CO)C(=O)N[C@@H](C)C(=O)N[C@@H](C)C(N)=O)NC(=O)[C@H](CC2CCC2)NC(=O)CNC(=O)[C@H](C)NC(=O)[C@H](Cc2c[nH]c3ccccc23)NC(=O)[C@H](Cc2ccc(O)cc2)NC(=O)[C@H](CCC(=O)O)NC1=O)[C@@H](C)O [MP-262] (Ac-[Lys(N3)][βAla]LTF[R8]EYWAG[Cba][S5]SAA-NH2; staple 6-13),> 50600,,106,207,,87,2.85,,,
CC(=O)N[C@@H](CCCCN=[N+]=[N-])C(=O)NCCC(=O)N[C@@H](CC(C)C)C(=O)N[C@H](C(=O)N[C@@H](Cc1ccccc1)C(=O)N[C@]1(C)CCCCCCC=CCCC[C@@](C)(C(=O)N[C@@H](CO)C(=O)N[C@@H](C)C(=O)N[C@@H](C)C(N)=O)NC(=O)[C@H](CC2CCC2)NC(=O)[C@H](CCC(N)=O)NC(=O)[C@H](C)NC(=O)[C@H](Cc2c[nH]c3ccccc23)NC(=O)[C@H](Cc2ccc(O)cc2)NC(=O)[C@@H](C)NC1=O)[C@@H](C)O [MP-473] (Ac-[Lys(N3)][βAla]LTF[R8][dA]YWAQ[Cba][S5]SAA-NH2; staple 6-13),> 50000,Poorly Behaved,197,213,,,3.49,,,
CC(=O)N[C@@H](CCCCN=[N+]=[N-])C(=O)NCCC(=O)N[C@@H](CC(C)C)C(=O)N[C@H](C(=O)N[C@@H](Cc1ccccc1)C(=O)N[C@]1(C)CCCCCCC=CCCC[C@@](C)(C(=O)N[C@@H](CO)C(=O)N[C@@H](C)C(=O)N[C@@H](C)C(N)=O)NC(=O)[C@H](CC2CCC2)NC(=O)[C@@H](C)NC(=O)[C@H](C)NC(=O)[C@H](Cc2c[nH]c3ccccc23)NC(=O)[C@H](Cc2ccc(O)cc2)NC(=O)[C@H](CCC(=O)O)NC1=O)[C@@H](C)O [MP-474] (Ac-[Lys(N3)][βAla]LTF[R8]EYWA[dA][Cba][S5]SAA-NH2; staple 6-13),> 50000,,148,222,,156,3.07,,,
CC(=O)N[C@@H](CCCCN=[N+]=[N-])C(=O)NCCC(=O)N[C@@H](CC(C)C)C(=O)N[C@H](C(=O)N[C@@H](Cc1ccccc1)C(=O)N[C@]1(C)CCCCCCC=CCCC[C@@](C)(C(=O)N[C@H](C)C(=O)N[C@@H](C)C(=O)N[C@@H](C)C(N)=O)NC(=O)[C@H](CC2CCC2)NC(=O)[C@H](CCC(N)=O)NC(=O)[C@H](C)NC(=O)[C@H](Cc2c[nH]c3ccccc23)NC(=O)[C@H](Cc2ccc(O)cc2)NC(=O)[C@H](CCC(=O)O)NC1=O)[C@@H](C)O [MP-475] (Ac-[Lys(N3)][βAla]LTF[R8]EYWAQ[Cba][S5][dA]AA-NH2; staple 6-13),> 50000,,155,224,,17,2.92,,,
CC(=O)N[C@@H](CCCCN=[N+]=[N-])C(=O)NCCC(=O)N[C@H](CC(C)C)C(=O)N[C@H](C(=O)N[C@@H](Cc1ccccc1)C(=O)N[C@]1(C)CCCCCCC=CCCC[C@@](C)(C(=O)N[C@@H](CO)C(=O)N[C@H](C)C(=O)N[C@@H](C)C(N)=O)NC(=O)[C@H](CC2CCC2)NC(=O)[C@H](C)NC(=O)[C@H](C)NC(=O)[C@H](Cc2c[nH]c3cc(Cl)ccc23)NC(=O)[C@H](Cc2ccc(O)cc2)NC(=O)[C@H](C)NC1=O)[C@@H](C)O [MP-493] (Ac-[Lys(N3)][βAla][dL]TF[R8]AY[Trp(6-Cl)]AA[Cba][S5]S[dA]A-NH2; staple 6-13),> 50600,,84.5,187,,< 1,3.93,,,
CC(=O)N[C@@H](CCCCN=[N+]=[N-])C(=O)NCCC(=O)N[C@@H](CC(C)C)C(=O)N[C@H](C(=O)N[C@@H](Cc1ccccc1)C(=O)N[C@]1(C)CCCCCCC=CCCC[C@@](C)(C(=O)N[C@@H](CO)C(=O)N[C@H](C)C(=O)N[C@@H](C)C(N)=O)NC(=O)[C@H](CC2CCC2)NC(=O)[C@H](CCC(N)=O)NC(=O)[C@H](C)NC(=O)[C@H](Cc2c[nH]c3cc(Cl)ccc23)NC(=O)[C@H](Cc2ccc(O)cc2)NC(=O)[C@H](CCC(=O)O)NC1=O)[C@@H](C)O [MP-494],> 50600,,706,210,,86.5,3.33,,,
CC(=O)N[C@@H](CCCCN=[N+]=[N-])C(=O)NCCC(=O)N[C@@H](CC(C)C)C(=O)N[C@H](C(=O)N[C@@H](Cc1ccccc1)C(=O)N[C@]1(C)CCCCCCC=CCCC[C@@](C)(C(=O)N[C@@H](CO)C(=O)N[C@@H](C)C(=O)N(C)CC(N)=O)NC(=O)[C@H](CC2CCC2)NC(=O)[C@H](CCC(N)=O)NC(=O)[C@H](C)NC(=O)[C@H](Cc2c[nH]c3ccccc23)NC(=O)[C@H](Cc2ccc(O)cc2)NC(=O)[C@H](CCC(=O)O)NC1=O)[C@@H](C)O [MP-566] (Ac-[Lys(N3)][βAla]LTF[R8]EYWAQ[Cba][S5]SA[Sar]-NH2; staple 6-13),> 50600,,132,204,,87.5,2.69,,,
CC(=O)N[C@@H](CCCCN=[N+]=[N-])C(=O)NCCC(=O)N(C)CC(=O)N[C@H](C(=O)N[C@@H](Cc1ccccc1)C(=O)N[C@]1(C)CCCCCCC=CCCC[C@@](C)(C(=O)N[C@@H](CO)C(=O)N[C@@H](C)C(=O)N[C@@H](C)C(N)=O)NC(=O)[C@H](CC2CCC2)NC(=O)[C@H](CCC(N)=O)NC(=O)[C@H](C)NC(=O)[C@H](Cc2c[nH]c3ccccc23)NC(=O)[C@H](Cc2ccc(O)cc2)NC(=O)[C@H](CCC(=O)O)NC1=O)[C@@H](C)O [MP-799] (Ac-[Lys(N3)][βAla][Sar]TF[R8]EYWAQ[Cba][S5]SAA-NH2; staple 6-13),> 50600,,> 10000,219,,82.5,2.6,,,
"CC(=O)N[C@@H](CCCCN=[N+]=[N-])C(=O)NCCC(=O)N[C@@H](CC(C)C)C(=O)N[C@H](C(=O)N[C@@H](C)C(=O)N[C@]1(C)CCCCCCC=CCCC[C@@](C)(C(=O)N[C@@H](CO)C(=O)N[C@@H](C)C(=O)N[C@@H](C)C(N)=O)NC(=O)[C@H](CC2CCC2)NC(=O)[C@H](CCC(N)=O)NC(=O)[C@H](C)NC(=O)[C@H](Cc2c[nH]c3ccccc23)NC(=O)[C@H](Cc2ccc(O)cc2)NC(=O)[C@H](CCC(=O)O)NC1=O)[C@@H](C)O [MP-892, AZIDE-ATSP-7041 (F3A)]",,,,201,,101,2.54,> 50600,> 50000,465
